Earlier results as cited in patent publication US20080063781A1, “Globin Digest Containing, Yeast-Fermented Beverages” (Suntory Limited, priority 2004, published 2008).

Test system: serum triglyceride levels
Details: reported in JP 9-255698 A

Substance | suppressive activity against the elevation of serum triglyceride levels
Val-Thr-Leu [VTL] | strong suppressive activity against the elevation of serum triglyceride levels
Val-Val-Tyr-Pro (VVYP; printed: Val-Val-Tyr-Pro) | strong suppressive activity against the elevation of serum triglyceride levels
